Test results published in patent US8980848B2, “Flavonoid dimers and their use” (The Hong Kong Polytechnic University, priority 2010, dated 2015).
Read-outs that look alike come from different tables or passages of the source.

Columns and labels:
[1] = tested on: LCC6, LCC6MDR and L929 cell lines; test: Cytotoxicity over LCC6, LCC6MDR and L929 cell lines; type: cell-based, human, mouse
Method: (§1) (b) Tumor Cell Line Cytotoxicity. The tumor cytotoxicity assays of flavonoid dimers were performed against LCC6, LCC6MDR and L929 cell lines. The cells were grown in supplemented DMEM media in an atmosphere of 95% air and 5% CO2 at 37° C. In brief, LCC6, LCC6MDR and L929 cells were seeded into 96-well flat bottom microtiter plate at 1×10^4 cells per well in a final volume of 100 μL media, respectively. A graded dose of flavonoid dimers was added into wells. The plate was incubated at 37° C. for 72 hrs at the atmosphere 5% CO2 in the air. The % of survivors was determined.

[2] = tested on: Ld39 promastigotes (SSG-resistant); test: In vitro anti-promastigote activity, Ld39; type: cell-based, Leishmania donovani; conditions: read-out: Anti-promastigotes activity (IC50, μM) Ld39
In short: (§2)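 L. donovani (LdAG83 wild type, SSG-resistant Ld39) and L. major Lm50122 promastigotes were seeded at 1×10^5 per well with a concentration series of compound.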

[3] = tested on: LdAG83 promastigotes (wild type); test: In vitro anti-promastigote activity, LdAG83; type: cell-based, Leishmania donovani; conditions: read-out: Anti-promastigotes activity (IC50, μM) LdAG83
In short: as §2

LCC6 cells = test: Tumor cell line cytotoxicity of flavonoid dimers, LCC6; type: cell-based, human; conditions: IC50 of compound alone, 72 hrs
In short: (§3)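 LCC6, LCC6MDR and L929 cells seeded at 1×10^4 cells/well and exposed to graded doses of flavonoid dimers. Incubation 72 hrs at 37° C., 5% CO2. Read-out: % survivors.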

LCC6MDR cells = test: Tumor cell line cytotoxicity of flavonoid dimers, LCC6MDR; type: cell-based, human; conditions: IC50 of compound alone, 72 hrs
In short: as §3

Pgp (LCC6MDR cells) [4] = biological target: T1, Pgp (LCC6MDR cells) (Homo sapiens, UniProt P08183); test: Cell proliferation assay: Pgp-modulating activity, reversal of anticancer drug resistance in LCC6MDR cells; conditions: for RF (Relative Fold), cpd at 0.5 μM: RF = (IC50 without modulator)/(IC50 with 0.5 μM modulator); for RF (Relative Fold), cpd at 0.5 μM / RF (Relative Fold), cpd at 1 μM: paclitaxel; for Therapeutic index: IC50 of compounds for L929/EC50 of compounds for lowering paclitaxel drug resistance; for RF (Relative Fold), cpd at 1 μM: RF = (IC50 without modulator)/(IC50 with 1.0 μM modulator)
T1 sequence (P08183 whole entry): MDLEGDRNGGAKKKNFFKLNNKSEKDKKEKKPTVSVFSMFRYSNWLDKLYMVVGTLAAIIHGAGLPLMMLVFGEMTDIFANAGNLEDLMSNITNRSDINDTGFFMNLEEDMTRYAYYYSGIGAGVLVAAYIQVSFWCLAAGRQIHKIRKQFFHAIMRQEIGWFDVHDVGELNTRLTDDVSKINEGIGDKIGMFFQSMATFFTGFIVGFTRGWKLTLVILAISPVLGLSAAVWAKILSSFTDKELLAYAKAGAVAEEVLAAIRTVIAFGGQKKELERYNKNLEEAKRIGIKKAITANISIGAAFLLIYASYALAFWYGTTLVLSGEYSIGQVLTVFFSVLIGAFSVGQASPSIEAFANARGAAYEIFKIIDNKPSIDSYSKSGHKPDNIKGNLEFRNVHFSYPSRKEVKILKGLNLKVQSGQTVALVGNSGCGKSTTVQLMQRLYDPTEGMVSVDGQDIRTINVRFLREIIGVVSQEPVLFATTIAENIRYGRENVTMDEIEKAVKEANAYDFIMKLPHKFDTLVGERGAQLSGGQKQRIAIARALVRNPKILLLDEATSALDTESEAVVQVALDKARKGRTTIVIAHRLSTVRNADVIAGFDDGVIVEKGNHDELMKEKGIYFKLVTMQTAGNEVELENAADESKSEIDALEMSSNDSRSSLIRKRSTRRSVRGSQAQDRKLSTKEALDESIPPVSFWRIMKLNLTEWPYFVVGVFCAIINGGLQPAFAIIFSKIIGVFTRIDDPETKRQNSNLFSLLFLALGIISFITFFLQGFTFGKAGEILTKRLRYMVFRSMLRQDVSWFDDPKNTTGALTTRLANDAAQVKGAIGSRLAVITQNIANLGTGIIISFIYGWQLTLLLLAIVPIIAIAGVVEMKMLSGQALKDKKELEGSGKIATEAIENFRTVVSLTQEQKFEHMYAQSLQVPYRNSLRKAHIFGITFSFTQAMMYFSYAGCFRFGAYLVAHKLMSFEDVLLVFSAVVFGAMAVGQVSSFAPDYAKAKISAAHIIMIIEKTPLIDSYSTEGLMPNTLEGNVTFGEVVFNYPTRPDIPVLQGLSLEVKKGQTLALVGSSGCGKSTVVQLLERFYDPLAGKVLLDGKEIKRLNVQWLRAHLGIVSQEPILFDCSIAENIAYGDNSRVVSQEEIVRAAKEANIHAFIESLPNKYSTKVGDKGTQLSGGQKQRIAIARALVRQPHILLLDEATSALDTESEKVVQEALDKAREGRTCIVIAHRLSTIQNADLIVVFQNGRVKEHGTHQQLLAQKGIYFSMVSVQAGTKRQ
Method: (§6) Cell Proliferation Assay. 6,000 cells of LCC6 or LCC6MDR and anticancer drugs (paclitaxel, vinblastine, vincristine, doxorubicin and mitoxantrone) were mixed with or without modulators to a final volume of 200 μL in each well of 96-well plates. […] The plates were then incubated for 5 days at 37° C. […] IC50 values were calculated from the dose-response curves of MTS assays (Prism 4.0).

L929 cells = test: Cytotoxicity of flavonoid dimers, L929 mouse fibroblast; type: cell-based
In short: as §3

Raw264.7 cells = test: Cytotoxicity, mouse macrophage Raw264.7; type: cell-based
In short: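 Raw264.7 (1×10^4 cells/well) and primary PEM cells (2×10^4 cells/well) in supplemented DMEM received graded compound doses and were incubated 72 h at 37 °C, 5% CO2. Percent survivors determined; cytotoxicity IC50 used for therapeutic index against antileishmanial IC50.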

Pgp (LCC6MDR cells) [5] = biological target: T1, Pgp (LCC6MDR cells)
Method: as §6

[6] = Cytotoxicity over LCC6, LCC6MDR and L929 cell lines; type: cell-based, human, mouse; conditions: human; cancer lines LCC6, LCC6MDR and/or L929
Method: as §1

[7] = tested on: LdAG83PentR50 promastigotes (pentamidine-resistant); test: microbe, parasite or virus in culture; type: cell-based, Leishmania donovani; conditions: read-out: Anti-promastigotes activity (IC50, μM) LdAG83PentR50
Method: (§4) Cell Lines and Cell Culture. Promastigotes of Leishmania donovani (wild type LdAG83, pentamidine-resistant LdAG83-PentR50, and SSG-resistant Ld39) and Leishmania major [MHOM/IL/67/JERICHO II (Lm50122), from ATCC] were used in this study.
No pentamidine or sodium stibogluconate was added to the L. donovani wild type (LdAG83) and L. major wild type (Lm50122). The mouse macrophage cell line, Raw264.7, was used for the determination of the relative toxicity of the compounds of the invention. […] They were maintained at 37° C. in a humidified atmosphere with 5% CO2. The cells were split constantly after a confluent monolayer has been formed. To split cells, the plate was washed briefly with PBS, treated with 0.05% trypsin-EDTA and harvested by centrifugation.
(§5) In Vitro Anti-Promastigote Activity. The viability of promastigotes was determined by the Cell Titer 96° Aqueous Assay (Promega) that employs a tetrazolium compound (MTS, 2-(4,5-Dimethylthiazol-2-yl-)-5-[3-(carboxymethoxy)phenyl]-2-(4-sulfophenyl)-2H-tetrazolium) and electron coupling reagent, phenazine methosulfate (PMS).^7 Promastigotes were seeded into 96-well flat bottom microtiter plate at 1×10^5 cells per well in a final volume of 100 μL medium and incubated with a series concentration of synthetic flavonoid dimers or known antileishmanials. The parasites were incubated at 27° C. for 72 hrs. Fresh solution of 2 mg/mL MTS and 0.92 mg/mL PMS were prepared in a ratio of 20:1 (MTS:PMS). After 72 hrs incubation, 10 μL of MTS:PMS mixture was added into each well of microtiter plate. The plate was then incubated at 27° C. for 4 hrs for color development. After 4 hrs incubation, the OD values were determined at 490 nm using automatic microtiter plate reader (Bio-Rad).

[8] = Tumor cell line cytotoxicity of flavonoid dimers, LCC6; type: cell-based, human; conditions: human, LCC6 cells, IC50 of compound alone
In short: as §3

[9] = Tumor cell line cytotoxicity of flavonoid dimers, LCC6MDR; type: cell-based, human; conditions: human, LCC6MDR cells, IC50 of compound alone
In short: as §3

[10] = Cytotoxicity of flavonoid dimers, L929 mouse fibroblast; type: cell-based; conditions: mouse, L929 fibroblast cells, IC50 of compound alone, 72 hrs, mouse fibroblast
In short: as §3

Lm50122 promastigotes = test: In vitro anti-promastigote activity, Lm50122; type: cell-based, Leishmania major; conditions: 3 days at 27° C., MTS; read-out: Anti-promastigotes activity (IC50, μM) Lm50122
Method: as §4, §5

O=c1cc(-c2ccc(OCCOCCN(CCO)CCOCCOc3ccc(-c4cc(=O)c5ccccc5o4)cc3)cc2)oc2ccccc12 [Compound 14, 1,13-Bis[4′-(4H-chromen-4-on-2-yl)phenyl]-N-(2-hydroxyethyl)-1,4,10,13-tetraoxa-7-azamidecane]
IC50 [1]: 6.9 to 14.8 µM | IC50 ([2]; 3 days at 27° C., MTS): 7.2 ± 2.2 µM | IC50 ([3]; 3 days at 27° C., MTS): 3.2 ± 1.1 µM | IC50 (LCC6 cells): 10.7 ± 3.3 µM | IC50 (LCC6MDR cells): 14.8 ± 5.9 µM | RF (Relative Fold), cpd at 0.5 μM (Pgp (LCC6MDR cells) [4]; LCC6MDR): (5.0) | IC50 (L929 cells): 6.9 ± 1.4 µM | IC50 (Raw264.7 cells; 72 hrs): 6.4 ± 1.5 µM

CC(C)(C)OC(=O)N(CCOCCOc1ccc(-c2cc(=O)c3c(OCc4ccccc4)cccc3o2)cc1)CCOCCOc1ccc(-c2cc(=O)c3c(OCc4ccccc4)cccc3o2)cc1 [Compound 16e, 1,13-Bis[4′-((5-benzyloxy)-4H-chromen-4-on-2-yl)phenyl]-7-(tert-butyloxycarbonyl)-1,4,10,13-tetraoxa-7-azamidecane]
IC50 (LCC6 cells): > 100 µM | IC50 (LCC6MDR cells): > 100 µM | RF (Relative Fold), cpd at 0.5 μM (Pgp (LCC6MDR cells) [5]): (1.1)

Cc1ccc(S(=O)(=O)N(CCOCCOc2ccc(-c3cc(=O)c4ccccc4o3)cc2)CCOCCOc2ccc(-c3cc(=O)c4ccccc4o3)cc2)cc1 [Compound 25a, 1,13-Bis[4′-(4H-chromen-4-on-2-yl)phenyl]-N-(4-methylbenzenesulfonyl)-1,4,10,13-tetraoxa-7-azamidecane]
IC50 ([2]; 3 days at 27° C., MTS): > 100 µM | IC50 ([3]; 3 days at 27° C., MTS): 100 µM | IC50 (LCC6 cells): > 100 µM | IC50 (LCC6MDR cells): > 100 µM | RF (Relative Fold), cpd at 0.5 μM (Pgp (LCC6MDR cells) [4]; LCC6MDR): (5.8) | IC50 (L929 cells): > 100 µM | IC50 (Raw264.7 cells; 72 hrs): > 100 µM

CC(C)(C)OC(=O)N(CCOCCOc1ccc(-c2oc3ccccc3c(=O)c2OCc2ccccc2)cc1)CCOCCOc1ccc(-c2oc3ccccc3c(=O)c2OCc2ccccc2)cc1 [Compound 16g, 1,13-Bis[4′-((3-benzyloxy)-4H-chromen-4-on-2-yl)phenyl]-7-(tert-butyloxycarbonyl)-1,4,10,13-tetraoxa-7-azamidecane]
RF (Relative Fold), cpd at 1 μM (Pgp (LCC6MDR cells) [5]): 1.2

1,13-Bis[4′-((5-hydroxy)-4H-chromen-4-on-2-yl)phenyl]-7-(tert-butyloxycarbonyl)-1,4,10,13-tetraoxa-7-azamidecane [Compound 16f]
IC50 (LCC6 cells): > 100 µM | IC50 (LCC6MDR cells): > 100 µM | RF (Relative Fold), cpd at 0.5 μM (Pgp (LCC6MDR cells) [5]): (11.3) | IC50 (L929 cells): > 100 µM

CC(C)(C)OC(=O)N(CCOCCOc1ccc(-c2cc(=O)c3ccccc3o2)cc1)CCOCCOc1ccc(-c2cc(=O)c3ccccc3o2)cc1 [Compound 16a, 1,13-Bis[4′-(4H-chromen-4-on-2-yl)phenyl]-N-(tert-butyloxycarbonyl)-1,4,10,13-tetraoxa-7-azamidecane]
IC50 at 72 h [6]: < 8 µM | IC50 ([2]; Leishmania donovani, 72 h): 1.6 µM | IC50 ([3]; Leishmania donovani, 72 h): 3.2 µM | IC50 ([7]; Leishmania donovani, 72 h): 1.1 µM | IC50 at 72 h [8]: 8 ± 2.5 µM | IC50 at 72 h [9]: 6.2 ± 0.8 µM | Ability to restore paclitaxel sensitivity, fold higher than verapamil (Pgp (LCC6MDR cells) [4]; 1.0 μM, LCC6MDR): 24 fold | EC50 (Pgp (LCC6MDR cells) [4]; EC50 of compounds for reversing anticancer drug resistance (nM), Paclitaxel, LCC6MDR): 320 ± 40 nM | Therapeutic index (Pgp (LCC6MDR cells) [4]): 34.7 | RF (Relative Fold), cpd at 0.5 μM (Pgp (LCC6MDR cells) [4]; LCC6MDR): (11.1) | IC50 at 72 h [10]: < 11.1 µM | IC50 (L929 cells; IC50 of compound alone, 72 hrs, mouse fibroblast, read-out: Cytotoxicity (μM) L929): 11.1 µM | IC50 (Raw264.7 cells; Mus musculus, RAW264.7, 72 h): > 100 µM

CCN(CCOCCOc1ccc(-c2cc(=O)c3ccccc3o2)cc1)CCOCCOc1ccc(-c2cc(=O)c3ccccc3o2)cc1 [Compound 13, 1,13-Bis[4′-(4H-chromen-4-on-2-yl)phenyl]-N-(ethyl)-1,4,10,13-tetraoxa-7-azamidecane]
IC50 [1]: 6.9 to 17.3 µM | IC50 ([2]; 3 days at 27° C., MTS): 5.5 ± 1.1 µM | IC50 ([3]; 3 days at 27° C., MTS): 3.2 ± 0.8 µM | IC50 (LCC6 cells): 10.3 ± 2.2 µM | IC50 (LCC6MDR cells): 17.3 ± 3.8 µM | EC50 (Pgp (LCC6MDR cells) [5]): 200 nM | Therapeutic index (Pgp (LCC6MDR cells) [4]): 34.5 | RF (Relative Fold), cpd at 0.5 μM (Pgp (LCC6MDR cells) [4]; LCC6MDR): (26.9) | IC50 (L929 cells): 6.9 ± 2 µM | IC50 (Raw264.7 cells; 72 hrs): 8.3 ± 1 µM

Cc1ccc2oc(-c3ccc(OCCOCCN(CCOCCOc4ccc(-c5cc(=O)c6cc(C)ccc6o5)cc4)C(=O)OC(C)(C)C)cc3)cc(=O)c2c1 [Compound 17c, 1,13-Bis[4′-((6-methyl)-4H-chromen-4-on-2-yl)phenyl]-N-(tert-butyloxycarbonyl)-1,4,10,13-tetraoxa-7-azamidecane]
IC50 (Lm50122 promastigotes): > 100 µM | IC50 [1]: > 100 µM | IC50 ([2]; 3 days at 27° C., MTS): 100 µM | IC50 ([3]; 3 days at 27° C., MTS): 21 µM | IC50 (LCC6 cells): > 100 µM | IC50 (LCC6MDR cells): > 100 µM | RF (Relative Fold), cpd at 0.5 μM (Pgp (LCC6MDR cells) [4]; LCC6MDR): (9.6) | RF (Relative Fold), cpd at 1 μM (Pgp (LCC6MDR cells) [4]; LCC6MDR): (139.2) | RF (Relative Fold), cpd at 1 μM (Pgp (LCC6MDR cells) [4]; LCC6MDR, listed as 17): 139.0 | IC50 (L929 cells): > 100 µM | IC50 (Raw264.7 cells; 72 hrs): > 100 µM

CCOC(=O)CCN(CCOCCOc1ccc(-c2cc(=O)c3ccccc3o2)cc1)CCOCCOc1ccc(-c2cc(=O)c3ccccc3o2)cc1 [Compound 15, 1,13-Bis[4′-(4H-chromen-4-on-2-yl)phenyl]-N-(3-ethoxy-3-oxopropyl)-1,4,10,13-tetraoxa-7-azamidecane]
IC50 [1]: 13.5 to 17.7 µM | IC50 ([2]; 3 days at 27° C., MTS): 6.6 ± 0.2 µM | IC50 ([3]; 3 days at 27° C., MTS): 3.8 ± 0.8 µM | IC50 (LCC6 cells): 13.5 ± 0.5 µM | IC50 (LCC6MDR cells): 17.7 ± 3.7 µM | RF (Relative Fold), cpd at 0.5 μM (Pgp (LCC6MDR cells) [4]; LCC6MDR): (5.3) | IC50 (L929 cells): 18.1 ± 3.4 µM

O=C(O)CCC(=O)N(CCOCCOc1ccc(-c2cc(=O)c3ccccc3o2)cc1)CCOCCOc1ccc(-c2cc(=O)c3ccccc3o2)cc1 [Compound 23a, 1,13-Bis[4′-(4H-chromen-4-on-2-yl)phenyl]-N-(4-hydroxy-1,4-dioxobutyl)-1,4,10,13-tetraoxa-7-azamidecane]
IC50 ([2]; 3 days at 27° C., MTS): > 100 µM | IC50 ([3]; 3 days at 27° C., MTS): > 100 µM | IC50 ([7]; 3 days at 27° C., MTS): 27 µM | IC50 (LCC6 cells): 78.4 ± 8.1 µM | IC50 (LCC6MDR cells): > 100 µM | RF (Relative Fold), cpd at 0.5 μM (Pgp (LCC6MDR cells) [4]; LCC6MDR): (1.1) | IC50 (Raw264.7 cells; 72 hrs): 65 µM
